Source: ChEMBL document CHEMBL1201862, “PubChem BioAssay data set” (2004)
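48-hour exposure; five concentrations; linearly interpolated endpoints. At the GI50, growth is halved.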 Activity calls are given as the source filed them. Cut-off read from the data, not from the text of the source: active = GI50 up to about 1.1 µM and inactive = higher.

Columns and labels:
Test in all cases: NCI-60 cell line screen, 48 h
DMS-114 = system: DMS-114
SW-620 = system: SW-620
NCI-H23 = system: NCI-H23
SK-OV-3 = system: SK-OV-3
SK-MEL-5 = system: SK-MEL-5
RXF 393 = system: RXF 393
HL-60 = system: HL-60
HT-29 = system: HT-29
RXF 631 = system: RXF 631
A549 = system: A549
M19-MEL = system: M19-MEL
UO-31 = system: UO-31
HCT-15 = system: HCT-15
HCT-116 = system: HCT-116
UACC-257 = system: UACC-257
RPMI-8226 = system: RPMI-8226
HOP-62 = system: HOP-62
UACC-62 = system: UACC-62
OVCAR-5 = system: OVCAR-5
LXFL 529 = system: LXFL 529
LOX IMVI = system: LOX IMVI
K562 = system: K562
MOLT-4 = system: MOLT-4
SR = system: SR
KM12 = system: KM12
SN12C = system: SN12C
SK-MEL-2 = system: SK-MEL-2
786-0 = system: 786-0
SF-539 = system: SF-539
XF498 = system: XF498
TK-10 = system: TK-10
IGROV-1 = system: IGROV-1
SK-MEL-28 = system: SK-MEL-28
SNB-19 = system: SNB-19
CCRF-CEM = system: CCRF-CEM
OVCAR-8 = system: OVCAR-8
OVCAR-4 = system: OVCAR-4
DLD-1 = system: DLD-1
KM-20L2 = system: KM-20L2
SNB-75 = system: SNB-75
DMS-273 = system: DMS-273
SNB-78 = system: SNB-78
U-251 = system: U-251
M14 = system: M14
Malme-3M = system: Malme-3M
HOP-18 = system: HOP-18
ACHN = system: ACHN
EKVX = system: EKVX
A498 = system: A498
SF-295 = system: SF-295
HCC 2998 = system: HCC 2998
NCI-H460 = system: NCI-H460
CAKI-1 = system: CAKI-1
SF-268 = system: SF-268
NCI-H226 = system: NCI-H226
OVCAR-3 = system: OVCAR-3
NCI-H522 = system: NCI-H522
COLO 205 = system: COLO 205
HOP-92 = system: HOP-92

In the case of `CC(C)(C)c1cc(Cc2ccc([N+](C)(C)C)cc2)c(O)c(C(C)(C)C)c1`, the GI50 (DMS-114) is reported as 7.19 µM (inactive), the GI50 (SW-620) is reported as 23.2 µM (inactive) and the GI50 (NCI-H23) is reported as 17.7 µM (inactive). For the same compound, the GI50 (SK-OV-3) was 25.2 µM (inactive), the GI50 (SK-MEL-5) was 10.6 µM (inactive) and the GI50 (RXF 393) was 16.4 µM (inactive). For the same compound, the GI50 (HL-60) was 2.41 µM (inactive), the GI50 (HT-29) was 15.4 µM (inactive) and the GI50 (RXF 631) was 45.6 µM (inactive). For the same compound, the GI50 (A549) was 33.9 µM (inactive), the GI50 (M19-MEL) was 12.9 µM (inactive) and the GI50 (UO-31) was 95.3 µM (inactive). For the same compound, the GI50 (HCT-15) was greater than 100 µM, the GI50 (HCT-116) was 16.7 µM (inactive) and the GI50 (UACC-257) was 17 µM (inactive). The GI50 (RPMI-8226) was 14.8 µM (inactive), the GI50 (HOP-62) was 16.6 µM (inactive) and the GI50 (UACC-62) was 14.3 µM (inactive). The GI50 (OVCAR-5) was 22.2 µM (inactive), the GI50 (LXFL 529) was 13.8 µM (inactive) and the GI50 (LOX IMVI) was 16.4 µM (inactive). For the same compound, the GI50 (K562) was 9.59 µM (inactive), the GI50 (MOLT-4) was 11.8 µM (inactive) and the GI50 (SR) was 14.1 µM (inactive). The GI50 (KM12) was 15.7 µM (inactive), the GI50 (SN12C) was 14.9 µM (inactive) and the GI50 (SK-MEL-2) was 16.5 µM (inactive). For the same compound, the GI50 (786-0) was 24.2 µM (inactive), the GI50 (SF-539) was 16.5 µM (inactive) and the GI50 (XF498) was 13 µM (inactive). For the same compound, the GI50 (TK-10) was 24.6 µM (inactive), the GI50 (IGROV-1) was 14.2 µM (inactive) and the GI50 (SK-MEL-28) was 12.5 µM (inactive). For the same compound, the GI50 (SNB-19) was 12.9 µM (inactive), the GI50 (CCRF-CEM) was 12.5 µM (inactive) and the GI50 (OVCAR-8) was 17.4 µM (inactive). For the same compound, the GI50 (OVCAR-4) was 30.1 µM (inactive), the GI50 (DLD-1) was 45.4 µM (inactive) and the GI50 (KM-20L2) was 21.9 µM (inactive). For the same compound, the GI50 (SNB-75) was 9.2 µM (inactive), the GI50 (DMS-273) was 9.64 µM (inactive) and the GI50 (SNB-78) was 14.9 µM (inactive). The GI50 (U-251) was 12.7 µM (inactive), the GI50 (M14) was 18.2 µM (inactive) and the GI50 (Malme-3M) was 17.9 µM (inactive). For the same compound, the GI50 (HOP-18) was 20.1 µM (inactive), the GI50 (ACHN) was > 100 µM (inactive) and the GI50 (EKVX) was 30.2 µM (inactive). For the same compound, the GI50 (A498) was 53 µM (inactive), the GI50 (SF-295) was 26.3 µM (inactive) and the GI50 (HCC 2998) was 15.7 µM (inactive). For the same compound, the GI50 (NCI-H460) was 18.6 µM (inactive), the GI50 (CAKI-1) was 63.8 µM (inactive) and the GI50 (SF-268) was 15 µM (inactive).

With `CCOC(=O)C(=O)Nc1c(C)cccc1C(C)C` the GI50 (DMS-114) was > 100 µM (inactive), the GI50 (NCI-H226) was > 100 µM (inactive) and the GI50 (SW-620) was > 100 µM (inactive). The GI50 (NCI-H23) was > 100 µM (inactive), the GI50 (SK-OV-3) was > 100 µM (inactive) and the GI50 (SK-MEL-5) was > 100 µM (inactive). The GI50 (HL-60) was > 100 µM (inactive), the GI50 (HT-29) was > 100 µM (inactive) and the GI50 (RXF 631) was > 100 µM (inactive). The GI50 (A549) was > 100 µM (inactive), the GI50 (M19-MEL) was > 100 µM (inactive) and the GI50 (UO-31) was > 100 µM (inactive). The GI50 (OVCAR-3) was > 100 µM (inactive), the GI50 (HCT-15) was greater than 100 µM and the GI50 (HCT-116) was > 100 µM (inactive). The GI50 (UACC-257) was > 100 µM (inactive), the GI50 (RPMI-8226) was > 100 µM (inactive) and the GI50 (NCI-H522) was > 100 µM (inactive). For the same compound, the GI50 (HOP-62) was > 100 µM (inactive), the GI50 (UACC-62) was > 100 µM (inactive) and the GI50 (OVCAR-5) was > 100 µM (inactive). For the same compound, the GI50 (LXFL 529) was > 100 µM (inactive), the GI50 (K562) was > 100 µM (inactive) and the GI50 (MOLT-4) was > 100 µM (inactive). For the same compound, the GI50 (SR) was > 100 µM (inactive), the GI50 (KM12) was > 100 µM (inactive) and the GI50 (COLO 205) was > 100 µM (inactive). For the same compound, the GI50 (SN12C) was > 100 µM (inactive), the GI50 (SK-MEL-2) was > 100 µM (inactive) and the GI50 (786-0) was > 100 µM (inactive). For the same compound, the GI50 (SF-539) was > 100 µM (inactive), the GI50 (XF498) was > 100 µM (inactive) and the GI50 (TK-10) was > 100 µM (inactive). The GI50 (IGROV-1) was > 100 µM (inactive), the GI50 (SK-MEL-28) was > 100 µM (inactive) and the GI50 (HOP-92) was > 100 µM (inactive). For the same compound, the GI50 (SNB-19) was > 100 µM (inactive), the GI50 (CCRF-CEM) was > 100 µM (inactive) and the GI50 (OVCAR-8) was > 100 µM (inactive). For the same compound, the GI50 (OVCAR-4) was > 100 µM (inactive), the GI50 (DLD-1) was > 100 µM (inactive) and the GI50 (KM-20L2) was > 100 µM (inactive). For the same compound, the GI50 (SNB-75) was 51.2 µM (inactive), the GI50 (DMS-273) was > 100 µM (inactive) and the GI50 (SNB-78) was > 100 µM (inactive). For the same compound, the GI50 (U-251) was > 100 µM (inactive), the GI50 (M14) was > 100 µM (inactive) and the GI50 (Malme-3M) was > 100 µM (inactive). The GI50 (HOP-18) was > 100 µM (inactive), the GI50 (ACHN) was > 100 µM (inactive) and the GI50 (EKVX) was > 100 µM (inactive). For the same compound, the GI50 (A498) was > 100 µM (inactive), the GI50 (SF-295) was > 100 µM (inactive) and the GI50 (NCI-H460) was > 100 µM (inactive). The GI50 (CAKI-1) was > 100 µM (inactive) and the GI50 (SF-268) was > 100 µM (inactive).
